Measurements from patent US10464893B2, “Derivatives of pyrrole-2,5-diones having a fungicidal activity, their agronomical compositions and use thereof” (ISAGRO S.p.A., priority 2016, dated 2019).

Legend:
Plasmopara viticola = test: Preventive activity (7 days) against Plasmopara viticola on vines; type: in vivo; conditions: leaf spray on vine plants, inoculation 7 days after treatment, reduction of diseased leaf area vs non-treated (100=total effectiveness)
Method: Determination of the Preventive Activity (7 Days) of Compounds Having Formula (I) Against Plasmopara viticola on Vines
Leaves of vine plants, grown in pots, in a conditioned environment (20±1° C., 70% of R.H.), were treated by spraying both sides with the products under examination.
7 days after the treatment, the plants were inoculated with an aqueous suspension of spores of Plasmopara viticola (200,000 spores/cc) by spraying on both sides of the leaves with a compressed air gun.
(§1) After remaining 24 hours in a humidity saturated environment, at 21° C., the plants were transferred for the incubation period (7 days) to a conditioned environment at 70% R.H. and at 24° C.
(§2) After this period, the external symptoms of the pathogen appeared and it was consequently possible to proceed with a visual evaluation of the intensity of the infection.
(§3) The fungicidal activity is expressed as a reduction percentage, with respect to non-treated seedlings, in the area of the leaves affected by the disease (100=total effectiveness, 0=zero effectiveness).
Table 2 indicates the results obtained for the compounds tested, compared with the reference product Mancozeb (polymeric complex of manganese ethylenebisdithiocarbamate with zinc salt).

Uromyces appendiculatus = test: Preventive activity (7 days) against Uromyces appendiculatus on beans; type: in vivo; conditions: leaf spray on bean plants, inoculation 7 days after treatment, reduction of diseased leaf area vs non-treated (100=total effectiveness)
Method: Determination of the Preventive Activity (7 Days) of Compounds Having Formula (I) Against Uromyces appendiculatus on Beans
Leaves of bean plants, grown in pots, in a conditioned environment (20±1° C., 70% of R.H.), were treated by spraying both sides with the products under examination.
7 days after the treatment, the plants were inoculated with an aqueous suspension of spores of Uromyces appendiculatus (200,000 spores/cc) by spraying on both sides of the leaves with a compressed air gun.
as §1, §2, §3
Table 3 indicates the results obtained for the compounds tested, compared with the reference product Domark® (Tetraconazole).

Row | Molecule | Effectiveness (%) (Plasmopara viticola; dose 125 ppm) | Effectiveness (%) (Plasmopara viticola; dose 500 ppm) | Effectiveness (%) (Uromyces appendiculatus; dose 125 ppm) | Effectiveness (%) (Uromyces appendiculatus; dose 500 ppm)
1 | CS(=O)(=O)N1C(=O)C(c2ccccc2)=C(c2cccc3ccccc23)C1=O [Compound 3, 1-methanesulfonyl-3-phenyl-4-(1-naphthyl)-1H-pyrrol-2,5-dione] | 86% | 99% | 84% | 93%
2 | CC(=O)ON1C(=O)C(c2ccccc2Br)=C(c2cccc3ccccc23)C1=O [Compound 11, 1-acetyloxy-3-(2-bromophenyl)-4-(1-naphthyl)-1H-pyrrole-2,5-dione] | 82% | 92% | 80% | 95%
3 | CS(=O)(=O)ON1C(=O)C(c2ccccc2Br)=C(c2cccc3ccccc23)C1=O [Compound 12, 3-(2-bromophenyl)-1-(methane-sulfonyloxy)-4-(1-naphthyl)-1H-pyrrole-2,5-dione] | 91% | 93% | 83% | 98%
4 | CCOC(=O)NN1C(=O)C(c2ccccc2Br)=C(c2cccc3ccccc23)C1=O [Compound 13, ethyl 3-(2-bromophenyl)-4-(1-naphthyl)-2,5-dione-1H-pyrrolylcarbamate] | 89% | 97% | 81% | 92%
5 | polymeric complex of manganese ethylenebisdithiocarbamate with zinc salt [Mancozeb, reference compound] | 78% | 96% |  | 
6 | t-butyl 3-phenyl-4-(1-naphthyl)-2,5-dione-1H-pyrrolylcarbamate [Compound 8] |  |  | 93% | 95%
